According to patent US9696306B2, “Methods of reducing levels of tau” (The Trustees of Columbia University in the City of New York, priority 2011, dated 2017):

What was measured:
Type in all cases: cell-based, mouse
sAPPβ = test: Immunoprecipitation/Western blot of secreted sAPPβ from conditioned medium of Tg2576 ES cell derived neurons
Description: (§1) The reliable detection of proteolytic derivatives of APP, including AP, is critical for a physiologically relevant cell based AD model. It was established that ES cell-derived pyramidal neurons express the major proteolytic enzymes mediating APP processing, β-site APP cleaving enzyme (BACE1) and presenilin 1 (PS1) (FIG. 2a). Endogenous APP, BACE1 and PS1 were abundantly detected in ES cell-derived pyramidal neurons at DIV 7, 14, 21. APP and BACE1 were not detected in ES cells, but PS1 was detectable consistent with it's described role in development (Wong, P. C. et al. Nature 387, 288-292 (1997)). […] In Tg2576 ES cell derived neurons, APP cleavage products were readily detectable. C-terminal APP fragments (CTFs) were detected in the neuronal lysate by Western blot analysis (FIG. 2b). Both human β- and α-secretase-derived secreted soluble APP (sAPPβ and sAPPα, respectively) were detected using immunoprecipitation of conditioned medium with sβsw and Aβ levels were detected in conditioned media using a human Aβ specific ELISA (FIG. 2b-e). […] Identical results were seen when neurons were infected with an APPsw Lenti virus and APP processing was analyzed (FIG. 6a-c). […]
(§2) Day 12-30 neurons were infected with a lentivirus carrying the Swedish variant of human APP (pLenti6/hAPPsw). […] Samples were separated using the NuPAGE gel system and Aβ peptides detected by quantitative Western blotting with 6E10. […]

Aβ40 = Aβ40 detection by human specific ELISA in conditioned medium of Tg2576 mES cell derived neurons; conditions: for secretion of Aβ40: Tg2576 ES cell derived neurons, conditioned medium; for IC50: optimized 96 well platform, 24 hours
Description: (§3) The reliable detection of proteolytic derivatives of APP, including AP, is critical for a physiologically relevant cell based AD model. It was established that ES cell-derived pyramidal neurons express the major proteolytic enzymes mediating APP processing, β-site APP cleaving enzyme (BACE1) and presenilin 1 (PS1) (FIG. 2a). Endogenous APP, BACE1 and PS1 were abundantly detected in ES cell-derived pyramidal neurons at DIV 7, 14, 21. APP and BACE1 were not detected in ES cells, but PS1 was detectable consistent with it's described role in development (Wong, P. C. et al. Nature 387, 288-292 (1997)). To achieve robust and reproducible neuronal expression of human APP, ES cells from the inner cell mass of blastocysts were isolated from a well characterized mouse model of AD, Tg2576. Tg2576 mice express human APP, harboring the Swedish mutation (APPsw) under the control of hamster PrP promoter (Hsiao, K. et al. Science 274, 99-102 (1996)). […] In Tg2576 ES cell derived neurons, APP cleavage products were readily detectable. C-terminal APP fragments (CTFs) were detected in the neuronal lysate by Western blot analysis (FIG. 2b). Both human β- and α-secretase-derived secreted soluble APP (sAPPβ and sAPPα, respectively) were detected using immunoprecipitation of conditioned medium with sβsw and Aβ levels were detected in conditioned media using a human Aβ specific ELISA (FIG. 2b-e). […] Consistent with previous studies in cell models and mouse brain, CTFs resulting from APP cleavage, accumulated in response to γ-secretase inhibitor treatment (FIG. 2b). Identical results were seen when neurons were infected with an APPsw Lenti virus and APP processing was analyzed (FIG. 6a-c). […] Thus, these neurons are suitable for lentiviral mediated genetic manipulation studies.
(§4) To accommodate high-throughput screening, Aβ detection assays using the Tg2576 mES cell derived neurons were miniaturized for a 96 well platform. […] It was determined that the optimal cell density of 1.5×10^5 cells/cm^2 maximized the cell viability signal. […]
(§5) Day 12-30 neurons were infected with a lentivirus carrying the Swedish variant of human APP (pLenti6/hAPPsw). […] The levels of Aβ42 and Aβ40 in conditioned media were determined using sandwich ELISA (Invitrogen) according to the manufacturer's protocol. Total Aβ was detected by immunoprecipitating conditioned medium with 6E10 (Covance) or 7N22 (Invitrogen) antibodies overnight at 4° C. Samples were separated using the NuPAGE gel system and Aβ peptides detected by quantitative Western blotting with 6E10. Full-length APP was detected by Western blot analysis using 6E10 (Covance) or polyclonal antibody against the C-terminus of APP (APP-Ctmaxi) (Okada, H., et al. FASEB J. 24, 2783-94 (2010)). […]

Aβ42 = Aβ42 detection by human specific ELISA in conditioned medium of Tg2576 mES cell derived neurons; conditions: for secretion of Aβ42: Tg2576 ES cell derived neurons, conditioned medium; for IC50: optimized 96 well platform, 24 hours
Description: as §3, §4, §5

APP-CTF = test: Western blot of C-terminal APP fragments (CTFs) in lysate of Tg2576 ES cell derived neurons; conditions: neuronal lysate
Description: as §1, §2

sAPPα = test: Immunoprecipitation/Western blot of secreted sAPPα from conditioned medium of Tg2576 ES cell derived neurons
Description: as §1, §2

Compound: C[C@@H](NC(=O)c1cc(C(=O)N[C@@H](Cc2ccccc2)[C@H](O)CNC2CC2)cc(N(C)S(C)(=O)=O)c1)c1ccccc1 [BACE inhibitor]
- secretion of sAPPβ (sAPPβ): decreased
- secretion of Aβ40 (Aβ40): decreased
- IC50 (Aβ40): 44.7 nM
- secretion of Aβ42 (Aβ42): decreased
- IC50 (Aβ42): 7.8 nM

Compound: C[C@H](NC(=O)Cc1cc(F)cc(F)c1)C(=O)N[C@H]1N=C(c2ccccc2)c2ccccc2N(C)C1=O [Compound E]
- secretion of sAPPβ (sAPPβ): without affecting
- secretion of Aβ40 (Aβ40): inhibited
- IC50 (Aβ40): 0.2 nM
- CTFs resulting from APP cleavage (APP-CTF): accumulated
- level of sAPPα (sAPPα): without affecting
- secretion of Aβ42 (Aβ42): inhibited
- IC50 (Aβ42): 0.2 nM

Compound: CC(C)C[C@H](CC(=O)NO)C(=O)N[C@H](C(=O)N[C@@H](C)C(=O)NCCN)C(C)(C)C [TAPI-2]
- level of sAPPα (sAPPα): decrease
